In the case of `CS(=O)(=O)C(Cl)(Cl)C(=O)c1ccccc1Cl`, the melting point was 81 to 82 °C.

As for `COc1ccc2c(Cc3c(Cl)cncc3Cl)nnc(Oc3ccccc3)c2c1`, the melting point lay within 130 to 132 °C.

Take `CC(=O)Nc1cc(Oc2ccc3c(C(=O)Nc4cc(-n5cnc(C)c5)cc(C(F)(F)F)c4)cccc3c2)ncn1`: the melting point was 291 to 293 °C.

In turn, `O=C(Nc1nonc1-c1ccc(Cl)cc1)NC1CCCCC1` displayed a melting point of 216 °C.

As for `COc1ccc(COc2cnc3c(S)cccn3c2=O)cc1`, the melting point was over 230 °C.

`CCOC(=O)c1c(N)c2cccnc2n(CC)c1=O`: the melting point was 205 to 208 °C.

`NNC(=O)c1cnn(-c2ccc(N(CCO)CCO)nn2)c1N` displayed a melting point of 217 to 219 °C.

On to `O=C(N[C@H]1CCc2c(F)cc(F)cc2C1)C(F)(F)F`, for which the melting point is 160 to 161 °C.

Take `CC(=O)C(=[N+]=[N-])C(=O)CCCCCCCCCc1ccc(S(=O)(=O)Cl)cc1`: the melting point was in the range of 48.5 to 50 °C.

Molecule `COc1cccc2c(=O)[nH]nc(C)c12` displayed a melting point of 257 to 260 °C.

`CC(C)(C)OC(=O)NCc1cccc(Nc2n[nH]c3ncnc(Nc4cccc(Cl)c4)c23)c1` came in with a melting point of 147 to 148 °C.

For `CCOC(=O)C1=C(COCCN2CCN(c3nc(N)n(C)n3)CC2)NC(C)=C(C(=O)OC)C1c1ccccc1Cl` (centres undefined), the melting point fell in the range of 92 to 96 °C.

The molecule `CCCCc1nc(SCC)c(CO)[nH]1` displayed a melting point of 128 °C.

`CCc1ccc(S(=O)(=O)Nc2ccc(Cl)cc2)cc1` registered a melting point of 120 to 122 °C.

Molecule `NC(=O)c1nc(-c2ccccn2)n2c1CN=C(c1ccccc1Cl)c1cc(Cl)ccc1-2` showed a melting point of 255 to 257 °C.

Take `Cc1c(N)c(C(C)C)cc(Cc2cc(C(C)C)c(N)c(C)c2Cl)c1Cl`: the melting point lay in the range of 118 to 120 °C.

`CCCCc1nnc(SCc2ccc(Cl)cc2)n1Cc1ccc(OC(C(=O)O)c2ccccc2)cc1` (centres undefined): the melting point was in the range of 66 to 67 °C.

In turn, `OCc1nc(-c2ccc(Cl)cc2)co1` came in with a melting point of 68 to 71.5 °C.

`CC(=O)COc1ccc2c(c1)C(=O)NC(C)(C)O2` came in with a melting point of 125 to 126 °C.

The molecule `CC(CCNCCOc1cccc2[nH]ccc12)c1c[nH]c2ccccc12` (centres undefined) showed a melting point of 70 to 73 °C.

Turning to `Cc1c(-c2ccccc2)oc2c(CS(=O)(=O)CCCl)cccc2c1=O`, the melting point was 158 to 161 °C.

Molecule `CCc1ccc(C(=O)c2ccccc2C(=O)O)c(CC)c1` returned a melting point of 115 to 118 °C.

In turn, `COc1ccc(C(CN)C(CN)c2ccc(Cl)cc2)cc1` (centres undefined) yielded a melting point of 124 to 127 °C.

Consider `COc1ccc(C2CCN(c3c(C)c(C)c4c(c3C)C(c3ccc(C(C)C)cc3)C(C)(C)O4)CC2)cc1OC` (centres undefined), for which the melting point lay in the range of 129 to 132 °C.

Turning to `CNC(=O)Oc1ccc(NC(=O)C(Cl)Cl)c(C)c1`, the melting point lay in the range of 199 to 201 °C.

Take `O=C(O)[C@H](Cc1c[nH]c2ccccc12)NC(=O)[C@@H]1C[C@H](S)CN1S(=O)(=O)c1ccc2ccccc2c1`: the melting point was 130 °C.

For `O=C(Cc1ccc(Oc2ccccc2)cc1)NC1(C(=O)O)Cc2ccc(-c3ccc(Cl)cc3)cc2C1` (centres undefined), the melting point is 227 to 228 °C.

As for `CSC1NC(=O)N(c2cccs2)C(=O)N1`, the melting point fell in the range of 220 to 222 °C.

The molecule `COc1cc2c(cc1Nc1ncc(Cl)c(Nc3ccccc3S(=O)(=O)N(C)C)n1)CCN(CC(=O)N1CCC1)CC2` had a melting point of 75 to 87 °C.

Take `CNCc1csc(-c2cccc(C3=Nc4cc(N(C)C)c(Cl)cc4NC(=O)C3)c2)n1`: the melting point lay in the range of 129 to 130 °C.

Regarding `O=c1[nH]c2cc(Cl)ccc2c(O)c1-c1cccc(Cc2ccccc2)c1`, the melting point was 304 to 306 °C.

As for `CCOc1cccc(Oc2cccnc2C#N)c1`, the melting point was 83 to 84 °C.

The molecule `Cc1cccc(C(=O)CC(Cc2ccccc2)C(=O)O)c1` (centres undefined) displayed a melting point of 158 to 161 °C.

The molecule `COCC(C)(COC)C(=O)O[C@H]1C[C@H](O)C=C2C=C[C@H](C)[C@H](CC[C@@H]3C[C@@H](O)CC(=O)O3)[C@H]21` came in with a melting point of 122 to 123 °C.

As to `Fc1ccc(Cn2c(OC3CCNCC3)nc3cncnc32)cc1`, the melting point is 79.3 °C.

`Fc1cccc2[nH]c(-c3ccccc3)cc12` came in with a melting point of 65 to 67 °C.

On to `Cc1ccc2ncc(C)cc2c1`, for which the melting point was found to be 50 °C.

Take `COc1ccc(-c2c3c(cc4ccc(OCc5ccccc5)cc24)C(=O)NC3=O)cc1`: the melting point lay in the range of 208 to 210 °C.

`COc1cc(OC)cc(-c2nc[nH]c2-c2ccc(OC(F)(F)F)c(N)c2)c1` yielded a melting point of 182 to 184 °C.

The molecule `Cc1[nH]n(Cc2ccc(C(N)=O)cc2)c2nc(-c3ccncc3)nc(=O)c1-2` registered a melting point of over 300 °C.

`COc1ccc(OCc2ccccc2)cc1C(=O)O`: the melting point was 114 to 116 °C.

`CC[C@@H](c1ccccc1)N(Cc1ccc(C(=O)OC)cc1OC)S(=O)(=O)c1ccc(Cl)cc1` registered a melting point of 108 to 110 °C.

For `NC(=O)Cn1ncc2c1CN=C(c1ccccc1)c1cc(Cl)ccc1-2`, the melting point was in the range of 218 to 219 °C.

Turning to `COC(=O)[C@@H]1Cc2ccccc2N1C(=O)[C@H](CC(=O)OCc1ccccc1)NC(=O)C(F)(F)F`, the melting point was 88 to 90 °C.

In turn, `Oc1ccc(Nc2ccc3cc(Br)ccc3c2)cc1` showed a melting point of 179 to 180 °C.

The molecule `Cc1c(C)c2c(c(C)c1O)CC[C@@](C)(CO)O2` had a melting point of 124 to 128 °C.

For the molecule `CN(C)c1ccc(S(=O)(=O)N2CCCC2=O)cc1`, the melting point was 202 to 204 °C.

Molecule `CCCCOc1ccc(C(=O)Nc2ccc3cc(CN4CCCC4C)cnc3c2C)cc1` (centres undefined) yielded a melting point of 153 to 156 °C.

`COC(=O)c1ccc(Cn2nc(C(C)(C)C)cc2O)cc1`: the melting point lay within 161 to 162 °C.

`CCN(Cc1ccc(Cl)nc1)C1=C([N+](=O)[O-])C2CCC(O2)N1C` (centres undefined) came in with a melting point of 125 to 126 °C.

In turn, `CCOC(=O)c1cnn2c1nc(N)c1cnc3c(cnn3CC)c12` came in with a melting point of 331 to 332 °C.

Turning to `CC(=O)NC1CCc2c(C)cc(C)c(O)c21` (centres undefined), the melting point was 131 to 132 °C.

Molecule `Cc1nnc(-c2ccnc(N)c2)o1` displayed a melting point of 216 to 217 °C.

`CC(C)(CO)Cc1ccccc1` came in with a melting point of 34 to 36 °C.

In turn, `Cc1nc(C)c(Cl)c(NCc2ccc(Oc3ccc4ncc([N+](=O)[O-])n4n3)c(O)c2)n1` registered a melting point of over 114 °C.

The molecule `CCN(C(=O)n1nnc2cc(C)c(C)cc21)c1ccccc1` registered a melting point of 136 °C.

`NS(=O)(=O)NC(=O)CCCCCC1CCSS1` (centres undefined) returned a melting point of 130 to 132 °C.

Turning to `O=C(O)c1cnc2sccc2c1Cl`, the melting point fell in the range of 172 to 174 °C.

As for `COc1cc(OC)c(-c2cccs2)cc1/C=C/C(=O)c1ccc(S(=O)(=O)Nc2cc(C)on2)cc1`, the melting point lay within 202 to 203 °C.

Regarding `CCCS(=O)(=O)n1ccc2ccc(N=C3NCCN3)cc21`, the melting point is 213 °C.

With `CCOC(=O)C(Cc1ccccc1)NC(=O)c1cc2cc(Cl)ccc2[nH]1` (centres undefined), the melting point fell in the range of 146 to 147 °C.

As to `Cc1[nH]c(=O)c2ccccc2c1CC(=O)O`, the melting point fell in the range of 280 to 295 °C.

Consider `CCSc1cccc(C)c1S(=O)(=O)NC(C)(C)C`, for which the melting point was 94 °C.

`O=C(CCNC(=O)[C@H](Cc1ccc(-c2ccccc2)cc1)NCP(=O)(Oc1ccccc1)Oc1ccccc1)Oc1ccc2c(c1)CCC2` came in with a melting point of 89 to 91 °C.

With `CCOC(=O)c1cnc2cc3c(cc2c1O)OCO3`, the melting point was over 290 °C.

In turn, `CCC1(CCO)C(=O)N2CC=CC(C(=O)OC)N2C1=O` (centres undefined) registered a melting point of 87 to 92 °C.

As for `O=C(CCc1cc2ccccc2s1)N1C(=O)OC[C@@H]1Cc1ccccc1`, the melting point fell in the range of 119 to 122 °C.

`CCCO[C@@H]1[C@@H](OC)[C@H](C)O[C@@H](ON=Cc2ccc(/C=C/c3ccc(OC(F)(F)F)cc3)cc2)[C@@H]1OC` yielded a melting point of 124 to 132 °C.

The molecule `Cc1nc2c3c(ccn2c1C)C(OCCO)C(O)C(c1ccccc1)N3` (centres undefined) registered a melting point of 107 to 109 °C.

Take `C[C@@H]1C[C@](C)(O)[C@H](C)N1c1ccc(C#N)c(C(F)(F)F)c1`: the melting point fell in the range of 115 to 117 °C.

As for `OC1CSC(Oc2cccnc2-c2cccs2)C(O)C1O` (centres undefined), the melting point turned out to be 130 °C.

As for `Cc1cc(Br)c2c(c1)C(=O)C(=O)N2CCN(C(C)C)C(C)C`, the melting point fell in the range of 94 to 97 °C.

`CNC(=O)c1cccc(NC(=O)CCc2ccc(O)cc2)c1` returned a melting point of 158 °C.

Molecule `O=C(O)[C@H]1C=C[C@H](c2ccccc2)n2c(=O)n(CCCl)c(=O)n21` (relative stereo) came in with a melting point of 141 to 143 °C.

Take `COCCC(=O)N[C@H]1CC[C@H](CCN2CCN(c3nccc4c3OCC4)CC2)CC1`: the melting point is 180 °C.

Regarding `CC(C)C[C@H](NC(=O)OCc1ccccc1)C(=O)N[C@@H](Cc1ccccc1)C(=O)CSCc1ccco1`, the melting point fell in the range of 77 to 78 °C.

`CCOC(=O)/C=C/c1ccc2cc(OCc3ccccc3)ccc2c1` came in with a melting point of 110 to 112 °C.

`Cc1cnc(Br)c(C#N)c1` yielded a melting point of 109 to 111 °C.

`CCC(C(=O)c1ccc(Cl)cc1)n1ncn(-c2ccc(N3CCNCC3)cc2)c1=O` (centres undefined) displayed a melting point of 176 °C.

The molecule `O=C(NC1C(=O)N(CCCO)c2ccccc2N(c2ccccc2)C1=O)Oc1ccccc1` (centres undefined) gave a melting point of 203 to 204 °C.

Regarding `O=C(Nc1ccc2cccnc2c1)c1cc2cc(F)ccc2n1Cc1cccc(F)c1`, the melting point fell in the range of 222 to 223 °C.

For `COc1ccc(C(=O)NCCCN2CCN(C(c3ccccc3)c3ccccc3)CC2)cc1`, the melting point lay within 126 to 128 °C.

`COc1nc2c(OCc3ccccc3)cccc2n1C` registered a melting point of 98 to 102 °C.

Take `O=[N+]([O-])c1ccc2c(c1)C(c1ccccc1F)=NCC(OP(=O)(N1CCOCC1)N1CCOCC1)=N2`: the melting point was 169 to 172 °C.

On to `Nc1c2c(nc3ccccc13)CCC2`, for which the melting point lay in the range of 180 to 182 °C.

In turn, `Cc1ccc2nc(CCl)cn2c1` displayed a melting point of 88 to 89.2 °C.

The molecule `C[C@H](N)C(=O)N(CC(=O)O)C1Cc2ccccc2C1` showed a melting point of 180 to 182 °C.

The molecule `O=S(=O)(c1ccc(N2CCCCCC2)cc1)N1CC(O)CC1=S` (centres undefined) came in with a melting point of 138 to 139 °C.

`Cc1cc2c(cc1C(F)(F)F)N(c1ccc(C(=O)O)cc1)CCC[C@@H]2N(Cc1cc(C(F)(F)F)cc(C(F)(F)F)c1)c1nnn(C)n1` came in with a melting point of 101 to 105 °C.

The term melting point denotes the temperature, or range, at which the solid turns liquid.
